Results as given in US20120142731A1, “METHODS OF INHIBITING VIRAL INFECTION” (Functional Genetics, Inc., priority 2007, published 2012).

Assays:
PRRS virus = assay: PRRS inhibition in primary porcine lung alveolar macrophages; assay type: cell-based, porcine reproductive and respiratory syndrome (PRRS) virus; conditions: administration 72 hours post infection
Excerpt: As noted above, important mammalian hosts treatable by this family of compounds include not only humans, but veterinarily and commercially important animals. Although monkeys, dogs, cats, mice, rats, horses, rabbits, cattle, sheep and goats are all important hosts to be treated for viral infection, pigs may be the dominant commercial animal, worldwide. The United States Department of Agriculture has characterized PRRS virus as a significant, worldwide, agricultural concern related to animal health and causes large economic losses to producers, and labeled a biosecurity threat. (Project 2008-2017).

HCV [1] = assay type: cell-based, Hepatitis C virus
HBV [2] = assay: HBV primary assay in HepG2 cells (virion DNA); assay type: cell-based, Hepatitis B virus; conditions: blinded NIAID study
[3] = tested on: Venezuelan Equine Encephalomyelitis (VEE); assay type: cell-based; conditions: 25 uM, administered 3 days post-infection
[4] = mammalian models; oral, IP, IV administration; cited from earlier work
Stability to light = assay type: physicochemical
Excerpt: R24 is subject to straight forward synthesis. […] The range of carriers available, is therefore, quite large. As a consequence, the compositions and methods of this invention embrace the FGI-104 compounds as neat solids, as pharmaceutically suitable preparations, in a pharmaceutically acceptable carrier of a variety of types. Compositions of the present invention may further comprise a pharmaceutical composition comprising a therapeutically effective amount of any of the small molecules (or combinations of small molecules) described above together with other materials, such as a suitable carrier, excipients, etc., for administration to a human or animal experiencing a viral infection or at risk of a viral infection. Such pharmaceutical compositions may be in solid, gel or liquid form and may be administered as appropriate to an individual IV, IM, IP or parenterally, topically, subcutaneously, orally, or through mucosal surfaces and routes (including, for example, rectal and vaginal suppositories). The exact dosage corresponding to a therapeutically effective amount will vary from mammal to mammal and virus to virus. […]

N5A of HCV = assay type: cell-based, Hepatitis C virus; conditions: 2.5 uM
[5] = 28 day course of administration; cited from earlier work
HBV [6] = assay: Viral release assay, HBV from Huh1 cells; assay type: cell-based, Hepatitis B virus
HCV [7] = assay: Viral release assay, HCV from Huh1 cells
replicon formation = assay type: cell-based
HIV-1 = HIV-1 luciferase assay in infected MT-4 cells
cowpox = assay: organism not typed; assay type: cell-based; conditions: Vero
in vitro = conditions: African green monkey
malaria = conditions: cited from earlier work

| Structure (SMILES) | effectiveness as reflected by the EC90 value (PRRS virus) | inhibition of the virus (luciferase signal) (HCV [1]) [%] | activity as measured by virion DNA (HBV [2]) | inhibition of VEE [3] | tolerability [4] | stability to light (Stability to light) | signal protein N5A of HCV in protein blot (N5A of HCV) | chromosomal instability [5] | preventing viral release (HBV [6]) | preventing viral release (HCV [7]) | inhibition of replicon formation (replicon formation) | EC50 (HIV-1; Human immunodeficiency virus 1, MT4, 72 h) [µM] | luciferase detection (HIV-1; MT-4 cells, relatively low dose, 72 hours post infection) | EC50 (cowpox) [µM] | CC50 (in vitro) [µM] | efficacy against chloroquinoline-resistant malarial strains (malaria; chloroquinoline-resistant strains) | efficacy against the parasite based disease (malaria) (malaria; compared with chloroquinoline) |
| --- | --- | --- | --- | --- | --- | --- | --- | --- | --- | --- | --- | --- | --- | --- | --- | --- | --- |
| CC(C)(C)NCc1cc(Nc2ccnc3cc(Cl)ccc23)cc(-c2ccc(Cl)cc2)c1O [Compound R24, 4′-chloro-5-[(7-chloro-4-quinolinyl)amino]-3-(1,1-dimethylethylamino)methyl [1,1′-biphenyl]-2-ol] | spectacular effectiveness | 100 | high level of activity | dramatic inhibition | well tolerated | instability to light | completely missing | not to induce significant chromosomal instability | effective in preventing viral release | effective in preventing viral release | does little to inhibit replicon formation | 8.5 | effective zero | 0.25 | > 25 |  |  |
| CC(C)(C)NCc1cc(Nc2ccnc3cc(Cl)ccc23)cc(-c2ccc(Cl)cc2)c1O.Cl.Cl [WR-228,258 2HCl, 4′-chloro-5-[(7-chloro-4-quinolinyl)amino]-3-(1,1-dimethylethylamino)methyl[1,1′-biphenyl]-2-ol dihydrochloride] |  |  |  |  | well tolerated |  |  |  |  |  |  |  |  |  |  | not effective | effective against the parasite based disease at about the same level as the dominant treatment |
